# Laboratory results as given in patent publication US8969573B2, “Compounds for the inhibition of cellular proliferation” (President and Fellows of Harvard College, priority 2010, dated 2015).
# Read-outs that look alike come from different tables or passages of the source.
# Experiments:
# [1] = test system: CRL2351 human breast cancer; assay: SRB assay (inhibition of cell proliferation); type: cell-based; settings: CRL2351 human breast cancer cells
# Description: (§1) A sulfur rhodamine B (SRB) assay was used to determine the extent of inhibition of cell proliferation as a measure of the anti-cancer activity of compounds of the present disclosure. The reagent SRB binds to cellular proteins and absorbs light proportionally to the cellular protein content, which is a surrogate marker for the number of cells. According to aspects of the present disclosure, the assay can be used to with any cancer cell line including breast cancer cell lines, prostate cancer cell lines, melanoma cell lines, lung cancer cell lines or any other cell lines of the cancers described herein.
# (§2) The following protocol was used to determine the growth characteristics of certain cell lines CRL2351 human breast cancer and CRL2813 human melanoma from which cell lines having doubling times less than 48 hours were selected for growth inhibition experiments. […] The following materials were used in addition to the cancel cell lines: complete (5% fetal calf serum added) tissue culture media, 96-well tissue culture plates, Sulforhodamine B dye (SRB, 0.57% w/w), […] (TCA, 10%), acetic acid glacial (1%) and 10 mM Tris base. The cells were prepared and plated. Cancer cells were grown to 80% confluency in an incubator. The cells were trypsinized per standard protocol or as needed for each cell line. The trypsin was neutralized, cells dissociated and counted. Each cell line was plated at a density of 500, 1000 and 3000 cells per well (six wells each) in five separate plates. The cells were then returned to the incubator. One plate was then removed each day starting day one after plating. 100 μl of 10% TCA was then added and the cells were fixed at 4° C. until all the cells were fixed. […] The cell growth for vehicle treatment is considered to be 100%. The optical density was then measured and plotted for each starting cell number and cell line against time. The percent cell growth inhibition was calculated as 100 minus the % of control cell growth. The % of control cell growth=((mean OD sample−Mean OD day 0)/(mean OD vehicle−Mean OD day 0))*100.
# CRL2813 human melanoma = assay: SRB assay (inhibition of cell proliferation); type: cell-based
# Description: as §1, §2
# eIF4E/eIF4G interaction = eIF4E/eIF4G interaction (Homo sapiens, UniProt P06730); assay: Fluorescent polarization assay; type: binding; settings: FITC eIF4G peptide and recombinant eIF4E, ratio to Z (4EGI-1 = 1)
# Protocol: The difference between the two measurement yields net polarization which is considered full signal of the assay (100% control). […] The activity of compound at each concentration is determined by comparing the fluorescent polarization (FP) signal in the presence of compound to the control (no compound) value. The percent inhibition is =100-((FP compound/FP control)*100).
# [2] = summary table, read-out: IC50 [μM} CRL2351
# [3] = CRL2813 human melanoma cells, summary table, read-out: IC50 [μM} CRL2813
# [4] = Tables 1, 4, 5, read-out: SRB-IC50 (μM) 2351
# [5] = CRL2813 human melanoma cells, Tables 1, 4, 5, read-out: SRB-IC50 (μM) 2813
# [6] = Homo sapiens, summary table, read-out: IC50 [μM} CRL2351
# [7] = Homo sapiens, CRL2813, CRL2813 human melanoma cells, summary table, read-out: IC50 [μM} CRL2813
# eIF4E/eIF4G interaction, sequence (P06730 whole entry): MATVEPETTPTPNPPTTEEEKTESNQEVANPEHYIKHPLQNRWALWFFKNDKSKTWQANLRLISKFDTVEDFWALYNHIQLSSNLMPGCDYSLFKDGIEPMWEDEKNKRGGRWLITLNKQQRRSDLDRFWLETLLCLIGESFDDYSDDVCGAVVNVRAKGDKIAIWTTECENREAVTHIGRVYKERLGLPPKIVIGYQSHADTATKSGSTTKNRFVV
Compound,Fp (ratio to Z) (eIF4E/eIF4G interaction),"IC50 [1, 4] [µM]",IC50 (CRL2813 human melanoma; [5]) [µM],also measured
"2-(2-(6,7-dichloro-4,5-dihydronaphtho[1,2-d]thiazol-2-yl)hydrazono)-3-(2-nitrophenyl)propanoic acid [PC-163F]",,,,"IC50 [1, 2]: < 1 µM; IC50 (CRL2813 human melanoma; [3]): < 1 µM"
"2-(2-(6,7-dichloro-4,5-dihydronaphtho[1,2-d]thiazol-2-yl)hydrazono)-3-(2-nitrophenyl)propanoic acid [PC-163S]",,,,"IC50 [1, 2]: 3 µM; IC50 (CRL2813 human melanoma; [3]): 3 µM"
"2-(2-(7,8-dichloro-4,5-dihydronaphtho[1,2-d]thiazol-2-yl)hydrazono)-3-(2-nitrophenyl)propanoic acid [PC-159S]",,,,"IC50 [1, 2]: 12.5 µM; IC50 (CRL2813 human melanoma; [3]): 4 µM"
"2-(2-(7,8-dichloro-4H-chromeno[4,3-d]thiazol-2-yl)hydrazono)-3-(2-nitrophenyl)propanoic acid [PC-204S]",,,,"IC50 [1, 2]: < 1 µM; IC50 (CRL2813 human melanoma; [3]): 3 µM"
O=C(O)C(Cc1ccccc1[N+](=O)[O-])=NNc1nc(-c2ccc(OCCCCCBr)cc2)cs1 (mixture of isomers) [KH148],,< 0.54,0.8,
O=C(O)C(Cc1ccccc1[N+](=O)[O-])=NNc1nc(-c2ccccc2OCCCBr)cs1 (mixture of isomers) [KH150],,2.8,0.9,
O=C(O)C(Cc1ccccc1[N+](=O)[O-])=NNc1nc(-c2cccc(OCCCCBr)c2)cs1 (mixture of isomers) [KH155],,8.6,10.8,
O=C(O)C(Cc1ccccc1[N+](=O)[O-])=NNc1nc(-c2cccc(OCCCCCBr)c2)cs1 (mixture of isomers) [KH156],,9.1,6,
"O=C(O)C(Cc1ccccc1[N+](=O)[O-])=NNc1nc(-c2ccc(OCCBr)cc2)cs1 (single isomer, unassigned) [KH146-f]",,< 0.54,2.1,
"O=C(O)C(Cc1ccccc1[N+](=O)[O-])=NNc1nc(-c2ccc(OCCBr)cc2)cs1 (single isomer, unassigned) [KH146-s]",,14.5,14,
"O=C(O)C(Cc1ccccc1[N+](=O)[O-])=NNc1nc(-c2ccc(OCCCBr)cc2)cs1 (single isomer, unassigned) [KH147-f]",,0.5,1.1,
"O=C(O)C(Cc1ccccc1[N+](=O)[O-])=NNc1nc(-c2ccc(OCCCBr)cc2)cs1 (single isomer, unassigned) [KH147-s]",,11.2,5.5,
"O=C(O)C(Cc1ccccc1[N+](=O)[O-])=NNc1nc(-c2ccccc2OCCBr)cs1 (single isomer, unassigned) [KH149-f]",,1,1,
"O=C(O)C(Cc1ccccc1[N+](=O)[O-])=NNc1nc(-c2ccccc2OCCBr)cs1 (single isomer, unassigned) [KH149-s]",,6,11.5,
"O=C(O)C(Cc1ccccc1[N+](=O)[O-])=NNc1nc(-c2ccccc2OCCCCCBr)cs1 (single isomer, unassigned) [KH152-f]",,2.4,< 1,
"O=C(O)C(Cc1ccccc1[N+](=O)[O-])=NNc1nc(-c2ccccc2OCCCCCBr)cs1 (single isomer, unassigned) [KH152-s]",,7.8,4.5,
"O=C(O)C(Cc1ccccc1[N+](=O)[O-])=NNc1nc(-c2cccc(OCCBr)c2)cs1 (single isomer, unassigned) [KH153-f]",,13.2,8,

Compound,Fp (ratio to Z) (eIF4E/eIF4G interaction),"IC50 [1, 4] [µM]",IC50 (CRL2813 human melanoma; [5]) [µM],also measured
"O=C(O)C(Cc1ccccc1[N+](=O)[O-])=NNc1nc(-c2cccc(OCCBr)c2)cs1 (single isomer, unassigned) [KH153-s]",,14,,
"O=C(O)C(Cc1ccccc1[N+](=O)[O-])=NNc1nc(-c2cccc(OCCCBr)c2)cs1 (single isomer, unassigned) [KH154-f]",,3.5,0.7,
"O=C(O)C(Cc1ccccc1[N+](=O)[O-])=NNc1nc(-c2cccc(OCCCBr)c2)cs1 (single isomer, unassigned) [KH154-s]",,1.5,,
"O=C(O)C(=NNc1nc(-c2ccc(Cl)c(Cl)c2)cs1)c1cccc([N+](=O)[O-])c1 (stereo in doubt) [KY-788-Z, (Z)-2-(2-(4-(3,4-dichlorophenyl)thiazol-2-yl)hydrazono)-2-(3-nitrophenyl)acetic acid]",0.86,,,"IC50 [1, 6]: > 20 µM"
"O=C(O)C(Cc1ccccc1[N+](=O)[O-])=NNc1nc(-c2ccc(Cl)c(Cl)c2)cs1 [Compound 4EGI-1, reference compound]",,,,"IC50 ([1]; Homo sapiens, Tables 1, 4, 5, read-out: SRB-IC50 (μM) 2351): 6.5 µM; IC50 [1, 6]: 5 ± 1.6 µM; IC50 (CRL2813 human melanoma; Homo sapiens, CRL2813, CRL2813 human melanoma cells, Tables 1, 4, 5, read-out: SRB-IC50 (μM) 2813): 1.3 µM; IC50 (CRL2813 human melanoma; [7]): 3.8 ± 1.06 µM"
[N-]=[N+]=Nc1ccc(-c2csc(NN=C(Cc3ccccc3[N+](=O)[O-])C(=O)O)n2)cc1 [KH-8],0.99,,,
O=C(O)C(Cc1ccccc1[N+](=O)[O-])=NNc1nc(-c2ccc(Br)cc2)cs1 [KH-53S],0.61,,,
O=C(O)/C(Cc1ccccc1[N+](=O)[O-])=N\Nc1nc(-c2ccc(N3CCOCC3)c(Br)c2)cs1 [KH-287II-S],0.62,,,
O=C(O)C(Cc1ccccc1[N+](=O)[O-])=NNc1nc(-c2ccc(OCCCOc3ccc(Cl)cc3)cc2)cs1 [KH-332S],1.09,,,
CCN(CC)c1ccc(-c2csc(N/N=C(\Cc3ccccc3[N+](=O)[O-])C(=O)O)n2)cc1 [KY-615F],,,,"IC50 [1, 2]: 5.7 µM; IC50 (CRL2813 human melanoma; [3]): 18.8 µM"
"COc1cc2c(cc1OC)-c1nc(N/N=C(/Cc3ccccc3[N+](=O)[O-])C(=O)O)sc1CC2 [PC-195S, (Z)-2-(2-(7,8-dimethoxy-4,5-dihydronaphtho[1,2-d]thiazol-2-yl)hydrazono)-3-(2-nitrophenyl) propanoic acid]",,,,"IC50 [1, 6]: 4 µM; IC50 (CRL2813 human melanoma; [7]): 7.5 µM"
"O=C(O)/C(Cc1ccccc1[N+](=O)[O-])=N/Nc1nc2c(s1)COc1c-2ccc(Cl)c1Cl [PC-202F, 2-(2-(6,7-dichloro-4H-chromeno[4,3-d]thiazol-2-yl)hydrazono)-3-(2-nitrophenyl)propanoic acid]",,,,IC50 (CRL2813 human melanoma; [7]): < 1 µM
"O=C(O)/C(Cc1ccccc1[N+](=O)[O-])=N\Nc1nc2c(s1)COc1c-2ccc(Cl)c1Cl [PC-202S, 2-(2-(6,7-dichloro-4H-chromeno[4,3-d]thiazol-2-yl)hydrazono)-3-(2-nitrophenyl)propanoic acid]",,,,IC50 (CRL2813 human melanoma; [7]): 4.5 µM
"O=C(O)/C(Cc1ccccc1[N+](=O)[O-])=N/Nc1nc2c(s1)COc1cc(Cl)c(Cl)cc1-2 [PC-204F, 2-(2-(7,8-dichloro-4H-chromeno[4,3-d]thiazol-2-yl)hydrazono)-3-(2-nitrophenyl)propanoic acid]",,,,"IC50 [1, 6]: 2 µM"
O=C(O)/C(Cc1ccccc1[N+](=O)[O-])=N/Nc1nc2c(s1)CSc1c-2ccc(Cl)c1Cl [PC-218F],,,,"IC50 [1, 6]: < 1 µM; IC50 (CRL2813 human melanoma; [7]): 8 µM"
O=C(O)/C(Cc1ccccc1[N+](=O)[O-])=N\Nc1nc2c(s1)CSc1cc(Cl)c(Cl)cc1-2 [PC-218S],,,,"IC50 [1, 6]: 5.5 µM; IC50 (CRL2813 human melanoma; [7]): 3 µM"

# Continued, in another order:
Fp (ratio to Z) (eIF4E/eIF4G interaction),Compound,"IC50 [1, 4] [µM]",IC50 (CRL2813 human melanoma; [5]) [µM],also measured
0.94,"O=C(O)C(=NNc1nc(-c2ccc(Cl)c(Cl)c2)cs1)c1ccccc1[N+](=O)[O-] (stereo in doubt) [KY-782-E, (E)-2-(2-(4-(3,4-dichlorophenyl)thiazol-2-yl)hydrazono)-2-(2-nitrophenyl)acetic acid]",,,"IC50 [1, 2]: 10 µM; IC50 (CRL2813 human melanoma; [3]): 2.2 µM"
1.50,O=C(O)/C(Cc1ccccc1[N+](=O)[O-])=N\Nc1nc(-c2ccc(OCCCCCBr)cc2)cs1 [KH-148I],,,IC50 (CRL2813 human melanoma; [7]): 0.9 µM
0.96,O=C(O)C(Cc1ccccc1[N+](=O)[O-])=NNc1nc(-c2ccc(OCCCCCOc3ccccc3)cc2)cs1 [KH-333S],,,
0.96,O=C(O)C(Cc1ccccc1[N+](=O)[O-])=NNc1nc(-c2ccc(OCCCCOc3ccc(Cl)cc3)cc2)cs1 [KH-336S],,,
0.82,O=C(O)[C@@H](Cc1cccc([N+](=O)[O-])c1)Nc1nc(-c2ccc(Cl)c(Cl)c2)cs1 [KY-365],,,"IC50 [1, 6]: 3 µM"
1,COc1ccc(-c2sc(N/N=C(/Cc3ccccc3[N+](=O)[O-])C(=O)O)nc2-c2ccc(C3CCCCC3)cc2)cc1 [KY-612SF],,,IC50 (CRL2813 human melanoma; [3]): 0.1 µM
1.3,O=C(O)c1nn(-c2nc(-c3ccc(Cl)c(Cl)c3)cs2)c2ccc([N+](=O)[O-])cc12 [RYF-440],,,
